Laboratory results: ChEMBL document CHEMBL5465560, “Selectivity Literature for EUbOPEN Chemogenomic Library” (2024)
pIC50: −log10 of the molar value. Blank lines part the entries; values can stand above or below the compound they belong to.

What was measured:
[1] = target: Serine/threonine-protein kinase 38-like (Homo sapiens) (UniProt Q9Y2H1); experiment: Selectivity interaction (KinomeScan (DiscoverX)) EUB0000666a STK38L; settings: at 10 µM
B2 bradykinin receptor = B2 bradykinin receptor (Homo sapiens, UniProt P30411); experiment: Selectivity interaction (Bradykinin 2 receptor binding assay, human recombinant ) EUB0000877a BDKRB2
[2] = target: Dual specificity protein kinase CLK1 (Homo sapiens, UniProt P49759); experiment: Selectivity interaction (KinomeScan (DiscoverX)) EUB0000607a CLK1; settings: at 10 µM
[3] = target: T1, Megakaryocyte-associated tyrosine-protein kinase (Homo sapiens) (UniProt P42679); experiment: Selectivity interaction (Kinase panel (Invitrogen)) EUB0000639a MATK; settings: at 200 nM
T1 sequence (whole entry): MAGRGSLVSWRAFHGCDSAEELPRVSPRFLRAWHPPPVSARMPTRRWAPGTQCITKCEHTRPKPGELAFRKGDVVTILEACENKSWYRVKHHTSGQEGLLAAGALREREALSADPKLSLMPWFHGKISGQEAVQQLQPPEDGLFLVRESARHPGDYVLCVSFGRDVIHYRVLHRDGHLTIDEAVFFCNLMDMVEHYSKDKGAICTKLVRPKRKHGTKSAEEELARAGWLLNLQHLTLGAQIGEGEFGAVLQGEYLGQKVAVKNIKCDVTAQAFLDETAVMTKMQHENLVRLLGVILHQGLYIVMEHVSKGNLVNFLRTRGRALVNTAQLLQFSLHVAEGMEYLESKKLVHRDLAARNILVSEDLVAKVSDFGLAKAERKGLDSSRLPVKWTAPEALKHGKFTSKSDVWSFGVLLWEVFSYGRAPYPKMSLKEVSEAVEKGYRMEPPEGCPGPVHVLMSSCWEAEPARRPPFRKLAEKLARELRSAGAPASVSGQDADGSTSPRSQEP

[4] = target: Serine/threonine-protein kinase PRP4 homolog (Homo sapiens) (UniProt Q13523); experiment: Selectivity interaction (ActivX KiNativ screen (kinase selectivity in THP-1 cell lysates)) EUB0000639a PRPF4; type: subcellular; settings: lysate, at 0.2 µM
[5] = target: Casein kinase I isoform gamma-3 (Homo sapiens) (UniProt Q9Y6M4); experiment: Selectivity interaction (KinaseProfiler screening (Millipore)) EUB0000601a CSNK1G3; settings: at 3 µM
[6] = target: T2, Tyrosine-protein kinase Mer (Homo sapiens) (UniProt Q12866); experiment: Selectivity interaction (KinomeScan (DiscoverX)) EUB0000092b MERTK; settings: at 10 µM
T2 sequence (whole entry): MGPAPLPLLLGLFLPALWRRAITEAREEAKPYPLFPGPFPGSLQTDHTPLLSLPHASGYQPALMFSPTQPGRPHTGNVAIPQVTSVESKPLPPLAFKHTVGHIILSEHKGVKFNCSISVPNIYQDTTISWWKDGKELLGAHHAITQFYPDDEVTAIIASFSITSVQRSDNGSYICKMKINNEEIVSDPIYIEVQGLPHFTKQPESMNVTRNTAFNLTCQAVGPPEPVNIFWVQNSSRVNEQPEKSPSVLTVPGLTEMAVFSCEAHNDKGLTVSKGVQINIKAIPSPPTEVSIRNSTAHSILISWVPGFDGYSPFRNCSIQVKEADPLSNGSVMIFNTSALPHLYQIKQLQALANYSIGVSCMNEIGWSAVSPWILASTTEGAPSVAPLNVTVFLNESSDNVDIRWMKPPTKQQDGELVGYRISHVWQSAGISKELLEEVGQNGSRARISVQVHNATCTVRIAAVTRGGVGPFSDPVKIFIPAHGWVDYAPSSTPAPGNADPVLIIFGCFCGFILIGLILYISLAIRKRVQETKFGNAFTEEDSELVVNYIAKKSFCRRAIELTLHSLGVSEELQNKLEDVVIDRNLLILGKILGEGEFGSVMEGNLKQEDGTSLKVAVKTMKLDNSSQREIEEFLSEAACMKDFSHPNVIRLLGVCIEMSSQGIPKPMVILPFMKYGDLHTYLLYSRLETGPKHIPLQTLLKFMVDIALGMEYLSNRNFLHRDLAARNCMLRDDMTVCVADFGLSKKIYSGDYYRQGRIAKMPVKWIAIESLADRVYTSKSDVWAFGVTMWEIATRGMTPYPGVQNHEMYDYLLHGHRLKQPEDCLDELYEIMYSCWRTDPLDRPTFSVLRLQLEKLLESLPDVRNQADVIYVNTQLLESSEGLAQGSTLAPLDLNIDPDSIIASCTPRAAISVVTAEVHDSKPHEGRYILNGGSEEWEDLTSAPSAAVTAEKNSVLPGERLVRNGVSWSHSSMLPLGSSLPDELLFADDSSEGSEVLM

[7] = target: CDK4/Cyclin D3 (Homo sapiens) (UniProt P11802+P30281); experiment: (§1) Selectivity interaction (KinomeScan (DiscoverX)) EUB0000618a CDK4; type: protein-complex assay; settings: at 10 µM
[8] = target: Cyclin-dependent kinase 4/cyclin D1 (Homo sapiens) (UniProt P11802+P24385); experiment: as §1; type: protein-complex assay; settings: at 10 µM
[9] = target: Homeodomain-interacting protein kinase 1 (Homo sapiens, UniProt Q86Z02); experiment: Selectivity interaction (KinomeScan (DiscoverX)) EUB0000618a HIPK1; settings: at 10 µM
[10] = target: Macrophage colony-stimulating factor 1 receptor (Homo sapiens) (UniProt P07333); experiment: Selectivity interaction (KinomeScan (DiscoverX)) EUB0001619a CSF1R; settings: at 1 µM
[11] = target: T3, Testis-specific serine/threonine-protein kinase 1 (Homo sapiens) (UniProt Q9BXA7); experiment: Selectivity interaction (KinomeScan (DiscoverX)) EUB0001619a TSSK1B; settings: at 1 µM
T3 sequence (whole entry): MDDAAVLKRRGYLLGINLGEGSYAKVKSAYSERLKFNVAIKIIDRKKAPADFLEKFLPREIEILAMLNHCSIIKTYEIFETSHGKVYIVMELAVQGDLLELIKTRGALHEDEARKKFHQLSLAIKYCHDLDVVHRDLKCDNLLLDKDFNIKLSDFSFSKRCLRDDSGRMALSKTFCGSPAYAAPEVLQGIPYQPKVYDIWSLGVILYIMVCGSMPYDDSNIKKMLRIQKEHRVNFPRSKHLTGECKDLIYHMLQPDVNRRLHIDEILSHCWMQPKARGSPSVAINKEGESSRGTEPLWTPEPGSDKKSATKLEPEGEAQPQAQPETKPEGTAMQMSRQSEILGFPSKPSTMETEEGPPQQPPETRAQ

Dual specificity protein kinase CLK1, sequence (P49759 whole entry, looked up): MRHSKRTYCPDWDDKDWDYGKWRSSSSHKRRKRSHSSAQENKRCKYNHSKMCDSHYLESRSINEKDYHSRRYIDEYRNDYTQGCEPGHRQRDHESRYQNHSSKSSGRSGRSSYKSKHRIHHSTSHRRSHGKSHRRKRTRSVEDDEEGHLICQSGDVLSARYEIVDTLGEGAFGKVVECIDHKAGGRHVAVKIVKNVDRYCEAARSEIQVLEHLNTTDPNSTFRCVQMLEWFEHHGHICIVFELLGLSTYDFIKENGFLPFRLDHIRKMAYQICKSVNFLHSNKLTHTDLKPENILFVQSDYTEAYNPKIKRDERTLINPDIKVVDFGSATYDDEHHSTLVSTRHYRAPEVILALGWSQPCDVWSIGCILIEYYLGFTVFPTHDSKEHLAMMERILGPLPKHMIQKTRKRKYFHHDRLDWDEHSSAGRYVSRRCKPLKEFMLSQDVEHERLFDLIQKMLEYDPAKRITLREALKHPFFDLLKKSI
B2 bradykinin receptor, sequence (P30411 whole entry): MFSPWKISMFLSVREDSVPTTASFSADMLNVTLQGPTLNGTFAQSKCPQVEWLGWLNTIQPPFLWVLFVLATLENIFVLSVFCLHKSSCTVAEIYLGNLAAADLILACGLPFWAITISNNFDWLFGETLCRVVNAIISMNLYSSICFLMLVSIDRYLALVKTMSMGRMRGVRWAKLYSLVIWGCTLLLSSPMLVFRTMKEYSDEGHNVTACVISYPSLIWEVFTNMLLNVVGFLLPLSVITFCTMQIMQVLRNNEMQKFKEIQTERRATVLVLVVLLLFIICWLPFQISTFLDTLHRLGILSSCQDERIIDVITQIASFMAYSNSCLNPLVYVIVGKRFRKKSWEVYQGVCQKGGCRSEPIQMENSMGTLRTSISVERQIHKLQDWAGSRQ
Homeodomain-interacting protein kinase 1, sequence (Q86Z02 whole entry, looked up): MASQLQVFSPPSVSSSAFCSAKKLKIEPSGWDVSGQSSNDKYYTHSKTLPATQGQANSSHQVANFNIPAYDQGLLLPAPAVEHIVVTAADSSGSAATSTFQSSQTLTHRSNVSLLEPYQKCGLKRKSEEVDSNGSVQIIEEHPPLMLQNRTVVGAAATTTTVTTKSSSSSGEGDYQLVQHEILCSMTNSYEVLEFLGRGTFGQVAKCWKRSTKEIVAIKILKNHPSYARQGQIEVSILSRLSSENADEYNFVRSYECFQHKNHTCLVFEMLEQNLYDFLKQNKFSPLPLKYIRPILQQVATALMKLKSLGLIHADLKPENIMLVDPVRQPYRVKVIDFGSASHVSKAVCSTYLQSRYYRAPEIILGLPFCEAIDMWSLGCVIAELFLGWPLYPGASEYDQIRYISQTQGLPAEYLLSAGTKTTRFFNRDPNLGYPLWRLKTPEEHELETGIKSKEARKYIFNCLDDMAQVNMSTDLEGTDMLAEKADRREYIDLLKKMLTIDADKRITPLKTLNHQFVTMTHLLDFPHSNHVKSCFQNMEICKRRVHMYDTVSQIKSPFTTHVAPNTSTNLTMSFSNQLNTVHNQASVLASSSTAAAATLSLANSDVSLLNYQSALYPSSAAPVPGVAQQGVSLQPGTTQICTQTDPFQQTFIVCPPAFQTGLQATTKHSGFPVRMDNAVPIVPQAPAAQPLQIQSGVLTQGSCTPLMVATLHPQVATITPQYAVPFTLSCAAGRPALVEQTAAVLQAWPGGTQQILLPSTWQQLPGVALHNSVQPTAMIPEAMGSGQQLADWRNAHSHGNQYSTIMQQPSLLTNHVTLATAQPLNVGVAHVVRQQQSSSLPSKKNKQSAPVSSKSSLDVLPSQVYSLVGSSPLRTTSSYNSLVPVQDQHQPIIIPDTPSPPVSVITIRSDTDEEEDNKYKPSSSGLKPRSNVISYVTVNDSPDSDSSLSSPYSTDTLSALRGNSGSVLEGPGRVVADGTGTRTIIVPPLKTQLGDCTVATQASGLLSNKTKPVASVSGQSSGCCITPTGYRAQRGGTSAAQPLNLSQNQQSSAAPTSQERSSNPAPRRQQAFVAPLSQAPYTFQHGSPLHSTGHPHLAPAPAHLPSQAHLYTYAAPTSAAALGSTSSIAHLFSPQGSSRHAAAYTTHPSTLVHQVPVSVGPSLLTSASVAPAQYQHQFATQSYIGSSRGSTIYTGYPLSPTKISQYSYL
Serine/threonine-protein kinase PRP4 homolog (Homo sapiens), sequence (Q13523 whole entry, canonical isoform): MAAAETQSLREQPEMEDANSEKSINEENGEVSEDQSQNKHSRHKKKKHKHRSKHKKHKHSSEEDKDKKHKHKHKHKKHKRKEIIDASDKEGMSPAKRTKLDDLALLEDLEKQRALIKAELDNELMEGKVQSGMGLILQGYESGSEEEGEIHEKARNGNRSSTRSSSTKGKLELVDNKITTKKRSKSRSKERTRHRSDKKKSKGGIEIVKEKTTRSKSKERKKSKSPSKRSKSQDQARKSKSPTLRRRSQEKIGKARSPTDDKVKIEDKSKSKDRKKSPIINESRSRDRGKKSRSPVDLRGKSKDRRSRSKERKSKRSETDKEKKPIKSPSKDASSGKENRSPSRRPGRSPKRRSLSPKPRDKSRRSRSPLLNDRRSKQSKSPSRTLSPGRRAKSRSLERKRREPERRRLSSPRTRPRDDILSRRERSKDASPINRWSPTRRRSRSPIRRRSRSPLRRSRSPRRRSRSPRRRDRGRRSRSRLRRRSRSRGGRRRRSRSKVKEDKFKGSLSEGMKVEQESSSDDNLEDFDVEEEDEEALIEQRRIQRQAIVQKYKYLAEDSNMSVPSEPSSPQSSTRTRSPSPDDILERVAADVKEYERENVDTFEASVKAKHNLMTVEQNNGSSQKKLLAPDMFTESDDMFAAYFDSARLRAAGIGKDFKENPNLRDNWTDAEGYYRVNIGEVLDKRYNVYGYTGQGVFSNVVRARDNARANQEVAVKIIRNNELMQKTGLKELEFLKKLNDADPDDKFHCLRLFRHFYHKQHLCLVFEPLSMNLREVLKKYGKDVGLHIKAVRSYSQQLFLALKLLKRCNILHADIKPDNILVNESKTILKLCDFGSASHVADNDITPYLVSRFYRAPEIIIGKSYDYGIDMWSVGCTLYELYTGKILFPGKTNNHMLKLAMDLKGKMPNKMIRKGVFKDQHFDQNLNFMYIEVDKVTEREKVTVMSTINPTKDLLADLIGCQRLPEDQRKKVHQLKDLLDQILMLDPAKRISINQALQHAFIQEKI
Serine/threonine-protein kinase 38-like (Homo sapiens), sequence (Q9Y2H1 2-464 limits assumed): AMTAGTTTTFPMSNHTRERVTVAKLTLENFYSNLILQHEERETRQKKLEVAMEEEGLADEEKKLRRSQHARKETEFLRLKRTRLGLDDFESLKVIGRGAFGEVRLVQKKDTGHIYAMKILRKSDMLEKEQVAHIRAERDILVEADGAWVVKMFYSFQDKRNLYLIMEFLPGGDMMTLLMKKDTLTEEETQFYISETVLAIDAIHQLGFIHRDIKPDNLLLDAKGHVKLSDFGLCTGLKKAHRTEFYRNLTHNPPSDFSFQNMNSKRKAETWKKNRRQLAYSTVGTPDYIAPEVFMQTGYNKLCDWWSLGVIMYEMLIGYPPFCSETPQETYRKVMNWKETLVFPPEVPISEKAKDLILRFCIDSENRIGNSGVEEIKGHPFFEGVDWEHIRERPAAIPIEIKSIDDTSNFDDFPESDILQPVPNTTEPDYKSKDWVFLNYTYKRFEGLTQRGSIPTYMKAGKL
Macrophage colony-stimulating factor 1 receptor (Homo sapiens), sequence (P07333 whole entry): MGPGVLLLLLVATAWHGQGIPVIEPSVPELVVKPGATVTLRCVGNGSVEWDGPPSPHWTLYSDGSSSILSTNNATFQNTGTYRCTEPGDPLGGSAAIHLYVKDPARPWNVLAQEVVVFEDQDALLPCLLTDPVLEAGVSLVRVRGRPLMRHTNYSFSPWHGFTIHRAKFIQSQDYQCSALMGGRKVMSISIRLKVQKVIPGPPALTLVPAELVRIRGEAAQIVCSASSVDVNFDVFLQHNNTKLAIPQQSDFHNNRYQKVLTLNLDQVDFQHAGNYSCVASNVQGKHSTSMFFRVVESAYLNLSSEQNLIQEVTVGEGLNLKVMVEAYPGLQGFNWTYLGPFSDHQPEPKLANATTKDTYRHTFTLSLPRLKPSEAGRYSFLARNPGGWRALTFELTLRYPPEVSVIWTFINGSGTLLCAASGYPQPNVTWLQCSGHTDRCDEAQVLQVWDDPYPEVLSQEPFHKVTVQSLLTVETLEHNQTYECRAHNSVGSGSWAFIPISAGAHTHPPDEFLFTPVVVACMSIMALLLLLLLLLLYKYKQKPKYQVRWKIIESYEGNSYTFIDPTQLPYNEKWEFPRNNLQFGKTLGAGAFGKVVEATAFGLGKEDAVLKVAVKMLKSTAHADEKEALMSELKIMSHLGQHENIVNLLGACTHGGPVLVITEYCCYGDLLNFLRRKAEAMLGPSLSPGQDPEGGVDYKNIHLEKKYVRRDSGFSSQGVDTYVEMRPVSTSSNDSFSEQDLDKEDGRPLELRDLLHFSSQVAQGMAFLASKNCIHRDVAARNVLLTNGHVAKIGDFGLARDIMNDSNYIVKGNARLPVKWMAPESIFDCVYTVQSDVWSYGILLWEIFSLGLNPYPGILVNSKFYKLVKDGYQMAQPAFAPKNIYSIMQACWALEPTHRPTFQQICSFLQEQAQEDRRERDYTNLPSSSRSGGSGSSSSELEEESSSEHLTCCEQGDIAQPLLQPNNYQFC
Casein kinase I isoform gamma-3 (Homo sapiens), sequence (Q9Y6M4 whole entry, looked up, canonical isoform): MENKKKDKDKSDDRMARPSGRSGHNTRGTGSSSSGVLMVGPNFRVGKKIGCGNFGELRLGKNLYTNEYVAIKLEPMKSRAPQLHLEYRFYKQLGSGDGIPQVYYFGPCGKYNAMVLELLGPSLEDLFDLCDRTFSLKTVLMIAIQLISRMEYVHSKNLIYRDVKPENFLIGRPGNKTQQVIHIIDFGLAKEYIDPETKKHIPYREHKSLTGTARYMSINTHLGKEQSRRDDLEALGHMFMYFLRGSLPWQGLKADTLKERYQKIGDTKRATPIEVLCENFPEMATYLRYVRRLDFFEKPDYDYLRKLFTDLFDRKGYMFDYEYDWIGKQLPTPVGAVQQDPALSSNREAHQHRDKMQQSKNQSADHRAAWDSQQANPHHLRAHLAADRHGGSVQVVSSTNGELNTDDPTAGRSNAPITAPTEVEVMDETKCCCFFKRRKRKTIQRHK

Structure (SMILES): O=C(NOC[C@H](O)CO)c1ccc(F)c(F)c1Nc1ccc(I)cc1F
% of control [1]: 100%

pIC50 (B2 bradykinin receptor): < 4.52
Structure (SMILES): CCC(=O)N1CC[C@H](Nc2ncnc3c2CN(c2cnc(OC)c(C(F)(F)F)c2)CC3)C1 [LENIOLISIB]

Structure (SMILES): CNC(=O)Nc1ccc(-c2nc(N3CC4CCC(C3)O4)c3cnn(C4CCC5(CC4)OCCO5)c3n2)cc1
% of control [2]: 29%

% of inhibition [3]: 1.51% | % of inhibition [4]: 21.9%
Structure (SMILES): CC[C@@H]1[C@H](F)C(=O)N[C@@H]1COc1nccc2cc(C(N)=O)c(OC)cc12 [ZIMLOVISERTIB]

% of inhibition [5]: 46%
Structure (SMILES): CCc1cc(Nc2nccc(-c3c(-c4ccc(OC)c(C(=O)Nc5c(F)cccc5F)c4)nc4ccccn34)n2)c(OC)cc1N1CCC(N2CCN(S(C)(=O)=O)CC2)CC1

Structure (SMILES): CCC(=O)N1CCN(c2ccc(-n3c(=O)ccc4cnc5ccc(-c6cnc7ccccc7c6)cc5c43)cc2C(F)(F)F)CC1
% of control [6]: 53%

Structure (SMILES): O[C@H]1CC[C@H](Nc2ncc3nc(Nc4c(F)cc(F)cc4F)n([C@H]4CCOC4)c3n2)CC1
% of control [7]: 80% | % of control [8]: 100% | % of control [9]: 93%

Structure (SMILES): N#Cc1cccc(-c2c[nH]c3ncnc(N4CCOCC4)c23)c1
% of control [10]: 87% | % of control [11]: 75%
